Read-outs that look alike come from different tables or passages of the source.
Legend:
Type in all cases: biochemical
[1] = molecular target: 320 wild-type protein kinases (Homo sapiens, UniProt Q16816); details: singlicate
Description: (§1) Table S4. Profiling of two compounds at two concentrations against 320 wild-type protein kinases; singlicate measurement; Residual activities (% of control).

[2] = molecular target: 320 wild-type protein kinases (Homo sapiens, UniProt Q16513); details: singlicate
320 wild-type protein kinases (Homo sapiens, UniProt Q16513), sequence (Q16513 whole entry): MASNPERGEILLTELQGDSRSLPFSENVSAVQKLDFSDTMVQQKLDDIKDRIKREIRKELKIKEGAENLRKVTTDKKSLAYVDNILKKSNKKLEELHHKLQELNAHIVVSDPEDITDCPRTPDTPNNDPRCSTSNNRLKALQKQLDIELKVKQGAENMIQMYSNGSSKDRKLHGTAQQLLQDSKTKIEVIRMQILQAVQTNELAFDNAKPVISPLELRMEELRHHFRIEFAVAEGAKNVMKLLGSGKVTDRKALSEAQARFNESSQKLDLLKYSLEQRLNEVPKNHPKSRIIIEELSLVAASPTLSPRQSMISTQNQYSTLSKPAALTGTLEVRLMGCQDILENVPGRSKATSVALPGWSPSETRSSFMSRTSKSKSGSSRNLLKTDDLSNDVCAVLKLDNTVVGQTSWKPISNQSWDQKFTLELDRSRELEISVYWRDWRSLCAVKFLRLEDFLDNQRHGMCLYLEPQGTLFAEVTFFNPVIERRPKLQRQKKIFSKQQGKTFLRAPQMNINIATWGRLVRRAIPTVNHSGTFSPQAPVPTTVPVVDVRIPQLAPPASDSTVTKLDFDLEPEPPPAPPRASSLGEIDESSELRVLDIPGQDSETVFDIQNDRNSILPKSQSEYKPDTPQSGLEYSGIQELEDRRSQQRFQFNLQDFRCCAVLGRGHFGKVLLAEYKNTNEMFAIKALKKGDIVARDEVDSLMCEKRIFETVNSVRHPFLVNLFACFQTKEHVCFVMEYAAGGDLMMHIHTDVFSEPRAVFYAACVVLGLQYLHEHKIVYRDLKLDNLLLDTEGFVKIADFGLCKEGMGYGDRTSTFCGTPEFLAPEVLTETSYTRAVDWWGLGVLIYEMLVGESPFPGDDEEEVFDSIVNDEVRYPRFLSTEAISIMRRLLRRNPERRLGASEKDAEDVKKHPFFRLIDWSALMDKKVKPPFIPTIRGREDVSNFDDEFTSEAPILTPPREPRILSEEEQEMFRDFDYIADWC
Description: as §1

[3] = molecular target: 320 wild-type protein kinases (Homo sapiens, UniProt Q9HC98); details: singlicate
320 wild-type protein kinases (Homo sapiens, UniProt Q9HC98), sequence (Q9HC98 whole entry): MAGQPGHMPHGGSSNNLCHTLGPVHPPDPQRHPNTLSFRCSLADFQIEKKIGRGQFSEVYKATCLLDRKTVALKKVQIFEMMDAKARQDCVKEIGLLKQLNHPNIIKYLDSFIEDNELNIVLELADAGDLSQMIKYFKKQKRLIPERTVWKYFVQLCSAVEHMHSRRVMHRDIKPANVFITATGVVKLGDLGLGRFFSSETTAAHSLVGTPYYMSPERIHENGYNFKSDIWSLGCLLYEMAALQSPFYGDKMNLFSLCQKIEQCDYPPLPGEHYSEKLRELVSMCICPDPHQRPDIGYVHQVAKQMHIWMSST
Description: as §1

[4] = molecular target: 320 wild-type protein kinases (Homo sapiens, UniProt P24941); details: singlicate
Description: as §1

[5] = molecular target: 320 wild-type protein kinases (Homo sapiens, UniProt O43293); details: singlicate
320 wild-type protein kinases (Homo sapiens, UniProt O43293), sequence (O43293 whole entry): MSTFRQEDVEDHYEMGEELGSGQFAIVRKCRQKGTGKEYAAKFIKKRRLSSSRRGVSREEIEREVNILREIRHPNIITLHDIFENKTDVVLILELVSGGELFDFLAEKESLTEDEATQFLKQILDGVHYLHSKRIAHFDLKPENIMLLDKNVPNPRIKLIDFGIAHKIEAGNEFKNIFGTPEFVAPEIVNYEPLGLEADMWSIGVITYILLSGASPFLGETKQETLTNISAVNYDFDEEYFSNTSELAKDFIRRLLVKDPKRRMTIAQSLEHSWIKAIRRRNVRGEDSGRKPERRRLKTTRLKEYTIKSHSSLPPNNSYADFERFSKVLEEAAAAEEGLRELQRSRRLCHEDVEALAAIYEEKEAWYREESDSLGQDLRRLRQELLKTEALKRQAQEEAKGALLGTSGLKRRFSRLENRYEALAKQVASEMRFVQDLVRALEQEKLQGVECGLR
Description: as §1

[6] = molecular target: 320 wild-type protein kinases (Homo sapiens, UniProt Q15746); details: MYLK, singlicate
320 wild-type protein kinases (Homo sapiens, UniProt Q15746), sequence (Q15746 whole entry): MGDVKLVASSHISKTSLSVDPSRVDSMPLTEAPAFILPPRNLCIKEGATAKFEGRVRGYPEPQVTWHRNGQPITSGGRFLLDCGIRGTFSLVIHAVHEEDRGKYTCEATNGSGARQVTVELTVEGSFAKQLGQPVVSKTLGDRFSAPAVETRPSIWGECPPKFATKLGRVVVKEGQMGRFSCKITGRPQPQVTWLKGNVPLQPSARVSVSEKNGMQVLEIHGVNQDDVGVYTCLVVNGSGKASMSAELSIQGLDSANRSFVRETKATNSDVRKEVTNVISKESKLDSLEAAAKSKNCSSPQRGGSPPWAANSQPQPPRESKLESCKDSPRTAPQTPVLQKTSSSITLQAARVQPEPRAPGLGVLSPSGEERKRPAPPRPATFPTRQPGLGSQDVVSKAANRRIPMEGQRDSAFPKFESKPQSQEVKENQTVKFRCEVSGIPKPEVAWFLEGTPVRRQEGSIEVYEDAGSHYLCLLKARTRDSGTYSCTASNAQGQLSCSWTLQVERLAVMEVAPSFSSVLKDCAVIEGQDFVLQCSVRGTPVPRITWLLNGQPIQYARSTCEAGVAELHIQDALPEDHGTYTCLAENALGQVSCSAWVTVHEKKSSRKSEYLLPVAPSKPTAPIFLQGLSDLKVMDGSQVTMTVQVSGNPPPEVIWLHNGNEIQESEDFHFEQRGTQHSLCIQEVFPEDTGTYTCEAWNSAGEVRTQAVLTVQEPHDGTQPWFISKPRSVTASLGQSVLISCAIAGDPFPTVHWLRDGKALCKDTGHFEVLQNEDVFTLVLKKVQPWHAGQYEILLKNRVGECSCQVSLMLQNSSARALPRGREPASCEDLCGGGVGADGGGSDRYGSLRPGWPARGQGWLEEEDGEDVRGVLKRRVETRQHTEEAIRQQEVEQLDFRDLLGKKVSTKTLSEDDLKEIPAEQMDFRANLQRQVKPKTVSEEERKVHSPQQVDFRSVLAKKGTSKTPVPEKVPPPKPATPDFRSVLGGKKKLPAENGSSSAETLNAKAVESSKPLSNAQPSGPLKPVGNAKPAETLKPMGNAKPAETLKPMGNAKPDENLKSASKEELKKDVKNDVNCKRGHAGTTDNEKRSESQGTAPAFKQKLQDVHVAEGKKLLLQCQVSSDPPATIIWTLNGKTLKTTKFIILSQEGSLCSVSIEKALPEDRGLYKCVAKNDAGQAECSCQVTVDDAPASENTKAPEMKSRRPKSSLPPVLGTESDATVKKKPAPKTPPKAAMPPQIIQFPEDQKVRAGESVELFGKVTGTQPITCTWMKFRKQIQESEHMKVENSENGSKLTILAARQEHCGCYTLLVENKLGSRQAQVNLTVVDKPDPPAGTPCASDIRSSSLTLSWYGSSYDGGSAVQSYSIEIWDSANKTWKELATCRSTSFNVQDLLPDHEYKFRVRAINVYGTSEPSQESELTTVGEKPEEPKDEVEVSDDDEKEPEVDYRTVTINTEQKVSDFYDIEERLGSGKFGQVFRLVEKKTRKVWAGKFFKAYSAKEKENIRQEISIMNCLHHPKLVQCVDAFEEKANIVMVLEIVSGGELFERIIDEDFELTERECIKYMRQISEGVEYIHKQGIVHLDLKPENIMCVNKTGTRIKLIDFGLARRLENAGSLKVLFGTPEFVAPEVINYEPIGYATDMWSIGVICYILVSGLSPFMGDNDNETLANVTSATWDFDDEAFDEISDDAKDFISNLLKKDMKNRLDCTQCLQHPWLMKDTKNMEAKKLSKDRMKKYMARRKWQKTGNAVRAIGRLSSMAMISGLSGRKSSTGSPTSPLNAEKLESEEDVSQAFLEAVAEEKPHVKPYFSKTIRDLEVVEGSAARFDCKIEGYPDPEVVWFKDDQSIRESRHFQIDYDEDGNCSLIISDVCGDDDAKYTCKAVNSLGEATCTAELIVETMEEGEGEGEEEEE
Description: as §1

[7] = molecular target: T1, 320 wild-type protein kinases (Homo sapiens, UniProt Q8TF76); details: singlicate
T1 sequence (Q8TF76 1-798): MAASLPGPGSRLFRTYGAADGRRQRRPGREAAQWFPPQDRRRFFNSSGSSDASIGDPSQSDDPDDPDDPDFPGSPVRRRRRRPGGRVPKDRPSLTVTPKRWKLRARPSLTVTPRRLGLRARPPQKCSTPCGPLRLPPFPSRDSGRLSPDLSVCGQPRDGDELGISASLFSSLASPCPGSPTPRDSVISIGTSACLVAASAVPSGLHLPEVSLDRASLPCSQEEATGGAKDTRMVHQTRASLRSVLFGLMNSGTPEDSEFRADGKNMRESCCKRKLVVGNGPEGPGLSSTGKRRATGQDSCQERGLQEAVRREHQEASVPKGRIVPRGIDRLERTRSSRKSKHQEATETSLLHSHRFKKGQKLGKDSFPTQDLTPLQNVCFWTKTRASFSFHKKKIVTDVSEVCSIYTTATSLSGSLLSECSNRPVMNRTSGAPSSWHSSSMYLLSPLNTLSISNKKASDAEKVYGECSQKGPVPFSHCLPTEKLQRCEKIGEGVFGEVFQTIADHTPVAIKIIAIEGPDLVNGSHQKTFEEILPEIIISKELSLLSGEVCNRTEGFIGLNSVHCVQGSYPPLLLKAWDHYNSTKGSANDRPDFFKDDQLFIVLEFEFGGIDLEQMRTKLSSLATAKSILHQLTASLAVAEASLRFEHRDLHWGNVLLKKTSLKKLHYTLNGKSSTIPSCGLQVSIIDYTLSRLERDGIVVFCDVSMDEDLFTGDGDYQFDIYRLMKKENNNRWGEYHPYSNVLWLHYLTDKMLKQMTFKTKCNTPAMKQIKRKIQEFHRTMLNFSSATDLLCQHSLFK
Description: as §1

[8] = molecular target: T2, 320 wild-type protein kinases (Homo sapiens, UniProt Q9HBY8); details: kinase SGK2, singlicate
T2 sequence (Q9HBY8 1-367): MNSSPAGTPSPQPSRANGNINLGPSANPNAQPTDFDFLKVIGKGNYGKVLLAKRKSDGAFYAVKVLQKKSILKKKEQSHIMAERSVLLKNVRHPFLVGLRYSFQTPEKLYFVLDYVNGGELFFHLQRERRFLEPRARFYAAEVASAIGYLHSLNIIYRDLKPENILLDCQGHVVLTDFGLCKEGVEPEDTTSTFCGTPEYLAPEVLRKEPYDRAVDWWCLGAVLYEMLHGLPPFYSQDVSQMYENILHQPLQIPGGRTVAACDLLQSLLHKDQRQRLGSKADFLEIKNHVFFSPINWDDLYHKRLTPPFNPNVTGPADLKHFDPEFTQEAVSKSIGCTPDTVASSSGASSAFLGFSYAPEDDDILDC
Description: as §1

[9] = molecular target: 320 wild-type protein kinases (Homo sapiens, UniProt Q13557); details: CAMK2D, singlicate
320 wild-type protein kinases (Homo sapiens, UniProt Q13557), sequence (Q13557 whole entry): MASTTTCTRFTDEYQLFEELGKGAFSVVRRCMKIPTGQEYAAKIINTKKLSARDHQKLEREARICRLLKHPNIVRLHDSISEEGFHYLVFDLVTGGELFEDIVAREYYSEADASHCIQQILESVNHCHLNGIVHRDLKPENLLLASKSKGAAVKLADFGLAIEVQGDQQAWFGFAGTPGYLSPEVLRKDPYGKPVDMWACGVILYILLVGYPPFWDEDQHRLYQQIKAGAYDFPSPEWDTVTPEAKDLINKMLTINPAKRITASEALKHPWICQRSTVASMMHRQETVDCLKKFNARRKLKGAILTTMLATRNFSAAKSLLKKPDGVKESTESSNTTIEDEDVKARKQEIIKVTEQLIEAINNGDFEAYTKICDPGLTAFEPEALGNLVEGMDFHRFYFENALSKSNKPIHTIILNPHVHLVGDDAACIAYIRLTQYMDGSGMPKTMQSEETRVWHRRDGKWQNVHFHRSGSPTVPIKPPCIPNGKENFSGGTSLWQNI
Description: as §1

[10] = molecular target: 320 wild-type protein kinases (Homo sapiens, UniProt Q9UQM7); details: CAMK2A, singlicate
320 wild-type protein kinases (Homo sapiens, UniProt Q9UQM7), sequence (Q9UQM7 whole entry): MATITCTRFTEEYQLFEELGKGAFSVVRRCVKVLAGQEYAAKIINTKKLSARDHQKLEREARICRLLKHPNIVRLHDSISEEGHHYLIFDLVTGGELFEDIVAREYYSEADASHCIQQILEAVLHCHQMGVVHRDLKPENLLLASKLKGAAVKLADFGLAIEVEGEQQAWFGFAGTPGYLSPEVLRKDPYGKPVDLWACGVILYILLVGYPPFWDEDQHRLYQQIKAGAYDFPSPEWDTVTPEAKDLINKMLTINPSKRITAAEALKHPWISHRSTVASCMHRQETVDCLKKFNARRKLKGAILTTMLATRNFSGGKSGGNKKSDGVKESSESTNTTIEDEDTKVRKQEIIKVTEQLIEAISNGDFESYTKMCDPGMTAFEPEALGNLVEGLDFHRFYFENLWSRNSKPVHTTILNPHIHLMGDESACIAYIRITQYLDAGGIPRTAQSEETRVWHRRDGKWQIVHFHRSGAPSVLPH
Description: as §1

[11] = molecular target: T3, 320 wild-type protein kinases (Homo sapiens, UniProt O60285); details: singlicate
T3 sequence (O60285 1-661): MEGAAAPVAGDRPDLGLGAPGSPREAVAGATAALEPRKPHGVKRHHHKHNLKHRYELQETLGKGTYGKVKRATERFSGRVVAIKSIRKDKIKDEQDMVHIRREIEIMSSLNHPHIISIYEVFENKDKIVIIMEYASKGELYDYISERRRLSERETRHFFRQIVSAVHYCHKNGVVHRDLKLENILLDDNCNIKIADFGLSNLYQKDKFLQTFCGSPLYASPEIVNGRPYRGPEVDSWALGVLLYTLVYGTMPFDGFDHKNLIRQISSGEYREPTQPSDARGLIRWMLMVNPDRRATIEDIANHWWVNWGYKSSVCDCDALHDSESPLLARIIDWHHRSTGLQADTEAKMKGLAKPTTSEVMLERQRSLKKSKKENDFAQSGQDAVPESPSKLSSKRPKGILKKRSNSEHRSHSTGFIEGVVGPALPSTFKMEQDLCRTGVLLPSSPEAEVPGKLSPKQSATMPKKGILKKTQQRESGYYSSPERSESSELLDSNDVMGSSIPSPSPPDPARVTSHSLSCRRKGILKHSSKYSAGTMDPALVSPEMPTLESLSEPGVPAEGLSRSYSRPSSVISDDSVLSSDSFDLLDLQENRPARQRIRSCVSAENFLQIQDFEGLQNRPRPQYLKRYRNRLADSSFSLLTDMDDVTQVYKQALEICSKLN
Description: as §1

[12] = molecular target: 320 wild-type protein kinases (Homo sapiens, UniProt Q86Z02); details: singlicate
Description: as §1

320 wild-type protein kinases (Homo sapiens, UniProt Q16816), sequence (Q16816 whole entry): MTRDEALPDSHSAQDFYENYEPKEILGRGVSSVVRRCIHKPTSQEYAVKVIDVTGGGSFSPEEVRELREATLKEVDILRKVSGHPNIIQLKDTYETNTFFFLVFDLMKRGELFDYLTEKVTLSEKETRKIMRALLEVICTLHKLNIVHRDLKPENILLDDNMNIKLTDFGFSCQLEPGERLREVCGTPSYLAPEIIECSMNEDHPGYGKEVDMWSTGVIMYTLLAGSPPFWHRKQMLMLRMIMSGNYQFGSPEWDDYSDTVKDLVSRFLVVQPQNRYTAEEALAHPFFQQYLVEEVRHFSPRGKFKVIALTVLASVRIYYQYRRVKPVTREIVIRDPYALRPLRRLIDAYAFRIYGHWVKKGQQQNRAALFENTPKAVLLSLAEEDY

Row | SMILES | Residual activity ([1]; PHKG1, 1.0E-06 M) | Residual activity ([1]; PHKG1, 1.0E-07 M) | Residual activity ([2]; PRK2, 1.0E-06 M) | Residual activity ([2]; PRK2, 1.0E-07 M) | Residual activity ([3]; NEK6, 1.0E-06 M) | Residual activity ([3]; NEK6, 1.0E-07 M) | Residual activity ([4]; CDK2/CycA2, 1.0E-06 M) | Residual activity ([4]; CDK2/CycA2, 1.0E-07 M) | Residual activity ([4]; CDK2/CycE1, 1.0E-06 M) | Residual activity ([4]; CDK2/CycE1, 1.0E-07 M) | Residual activity ([5]; DAPK3, 1.0E-06 M) | Residual activity ([5]; DAPK3, 1.0E-07 M) | Residual activity ([6]; 1.0E-06 M) | Residual activity ([6]; 1.0E-07 M) | Residual activity ([7]; GSG2, 1.0E-06 M) | Residual activity ([7]; GSG2, 1.0E-07 M) | Residual activity, SGK2 ([8]; assay conc. 1.0E-06 M) | Residual activity, SGK2 ([8]; assay conc. 1.0E-07 M) | Residual activity ([9]; 1.0E-06 M) | Residual activity ([9]; 1.0E-07 M) | also measured
1 | C#Cc1cc(Nc2ncnc3cc(I)ccc23)ccc1Cl [Compound 41] | 94 % of control | 97 % of control | 88 % of control | 85 % of control | 92 % of control | 84 % of control | 90 % of control | 88 % of control | 76 % of control | 97 % of control | 109 % of control | 110 % of control | 58 % of control | 98 % of control | 112 % of control | 113 % of control | 86 % of control | 101 % of control | 89 % of control | 103 % of control | Residual activity ([10]; 1.0E-06 M): 93 % of control; Residual activity ([10]; 1.0E-07 M): 99 % of control; Residual activity ([11]; ARK5, 1.0E-06 M): 108 % of control; Residual activity ([11]; ARK5, 1.0E-07 M): 110 % of control; Residual activity ([12]; HIPK1, 1.0E-06 M): 87 % of control; Residual activity ([12]; HIPK1, 1.0E-07 M): 98 % of control
2 | C#Cc1cc(Nc2ncnc3cc(OC)c(OC)cc23)ccc1Cl [Compound 45] | 85 % of control | 108 % of control | 95 % of control | 92 % of control | 92 % of control | 90 % of control | 97 % of control | 95 % of control | 86 % of control | 91 % of control | 114 % of control | 112 % of control | 71 % of control | 92 % of control | 109 % of control | 115 % of control | 98 % of control | 94 % of control | 95 % of control | 91 % of control | Residual activity ([10]; 1.0E-06 M): 101 % of control; Residual activity ([10]; 1.0E-07 M): 104 % of control; Residual activity ([11]; ARK5, 1.0E-06 M): 114 % of control; Residual activity ([11]; ARK5, 1.0E-07 M): 104 % of control; Residual activity ([12]; HIPK1, 1.0E-06 M): 80 % of control; Residual activity ([12]; HIPK1, 1.0E-07 M): 79 % of control

Reference: publication PMC9329436, “Optimization of the 4-anilinoquin(az)oline scaffold as epidermal growth factor receptor (EGFR) inhibitors for chordoma utilizing a toxicology profiling assay platform” (Scientific Reports, 2022)
